# Test results from patent US6358885B1, “Substituted phenylheterocyclic herbicides” (Mississippi State University, priority 1992, dated 2002).
# Key:
# Experiment in all cases: Test B preemergence/postemergence greenhouse plant response rating 0 to 10
# Details in all cases: 0 to 10 scale
# barley = type: in vivo, Hordeum vulgare
# Outline: (§1)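 Both application timings were run together: seeds got compound preemergence, and established seedlings (two to eighteen cm) got it postemergence. Non-phytotoxic solvent carried the chemical. Ratings are visual, versus controls, at twelve to sixteen days.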
# barnyardgrass = type: in vivo, Echinochloa crus-galli
# Outline: as §1
# bedstraw = type: in vivo, Galium aparine
# Outline: as §1
# blackgrass = type: in vivo, Alopecurus myosuroides
# Outline: as §1
# cheatgrass = type: in vivo, Bromus secalinus
# Outline: as §1
# chickweed = type: in vivo, Stellaria media
# Outline: as §1
# cocklebur = type: in vivo, Xanthium pensylvanicum
# Outline: as §1
# corn = type: in vivo, Zea mays
# Outline: as §1
# cotton = type: in vivo, Gossypium hirsutum
# Outline: as §1
# crabgrass = type: in vivo, Digitaria spp.
# Outline: as §1
# giant foxtail = type: in vivo, Setaria faberii
# Outline: as §1
# lambsquarters = type: in vivo, Chenopodium album
# Outline: as §1
# morningglory = type: in vivo, Ipomoea hederacea
# Outline: as §1
# rape = type: in vivo, Brassica napus
# Outline: as §1
# rice = type: in vivo, Oryza sativa
# Outline: as §1
# sorghum = type: in vivo, Sorghum bicolor
# Outline: as §1
# soybean = type: in vivo, Glycine max
# Outline: as §1
# sugar beet = type: in vivo, Beta vulgaris
# Outline: as §1
# velvetleaf = type: in vivo, Abutilon theophrasti
# Outline: as §1
# wheat = type: in vivo, Triticum aestivum
# Outline: as §1
# wild buckwheat = type: in vivo, Polygonum convolvulus
# Outline: as §1
# wild oat = type: in vivo, Avena fatua
# Outline: as §1
# purple nutsedge = type: in vivo, Cyperus rotundus
# Outline: as §1
compound,measurement,setting,value
CCC(=O)Oc1cc(-c2nn3c(c2Cl)CCCC3)c(F)cc1Cl [Compound 47],"Plant response rating, Barley","barley; POSTEMERGENCE, Rate 50 g/ha",5
same,"Plant response rating, Barley","barley; POSTEMERGENCE, Rate 200 g/ha",4
same,"Plant response rating, Barley","barley; PREEMERGENCE, Rate 50 g/ha",0
same,"Plant response rating, Barley","barley; Rate 200 g/ha, PREEMERGENCE",0
same,"Plant response rating, Barnyardgrass","barnyardgrass; POSTEMERGENCE, Rate 50 g/ha",6
same,"Plant response rating, Barnyardgrass","barnyardgrass; POSTEMERGENCE, Rate 200 g/ha",9
same,"Plant response rating, Barnyardgrass","barnyardgrass; PREEMERGENCE, Rate 50 g/ha",0
same,"Plant response rating, Barnyardgrass","barnyardgrass; Rate 200 g/ha, PREEMERGENCE",0
same,"Plant response rating, Bedstraw","bedstraw; POSTEMERGENCE, Rate 50 g/ha",9
same,"Plant response rating, Bedstraw","bedstraw; POSTEMERGENCE, Rate 200 g/ha",10
same,"Plant response rating, Bedstraw","bedstraw; PREEMERGENCE, Rate 50 g/ha",9
same,"Plant response rating, Bedstraw","bedstraw; Rate 200 g/ha, PREEMERGENCE",9
same,"Plant response rating, Blackgrass","blackgrass; POSTEMERGENCE, Rate 50 g/ha",4
same,"Plant response rating, Blackgrass","blackgrass; POSTEMERGENCE, Rate 200 g/ha",8
same,"Plant response rating, Blackgrass","blackgrass; PREEMERGENCE, Rate 50 g/ha",2
same,"Plant response rating, Blackgrass","blackgrass; Rate 200 g/ha, PREEMERGENCE",3
same,"Plant response rating, Cheatgrass","cheatgrass; POSTEMERGENCE, Rate 50 g/ha",4
same,"Plant response rating, Cheatgrass","cheatgrass; POSTEMERGENCE, Rate 200 g/ha",4
same,"Plant response rating, Cheatgrass","cheatgrass; PREEMERGENCE, Rate 50 g/ha",0
same,"Plant response rating, Cheatgrass","cheatgrass; Rate 200 g/ha, PREEMERGENCE",0
same,"Plant response rating, Chickweed","chickweed; POSTEMERGENCE, Rate 50 g/ha",9
same,"Plant response rating, Chickweed","chickweed; POSTEMERGENCE, Rate 200 g/ha",9
same,"Plant response rating, Chickweed","chickweed; PREEMERGENCE, Rate 50 g/ha",0
same,"Plant response rating, Chickweed","chickweed; Rate 200 g/ha, PREEMERGENCE",2
same,"Plant response rating, Cocklebur","cocklebur; POSTEMERGENCE, Rate 50 g/ha",6
same,"Plant response rating, Cocklebur","cocklebur; POSTEMERGENCE, Rate 200 g/ha",9
same,"Plant response rating, Cocklebur","cocklebur; PREEMERGENCE, Rate 50 g/ha",2
same,"Plant response rating, Cocklebur","cocklebur; Rate 200 g/ha, PREEMERGENCE",3
same,"Plant response rating, Corn","corn; POSTEMERGENCE, Rate 50 g/ha",4
same,"Plant response rating, Corn","corn; POSTEMERGENCE, Rate 200 g/ha",5
same,"Plant response rating, Corn","corn; PREEMERGENCE, Rate 50 g/ha",0
same,"Plant response rating, Corn","corn; Rate 200 g/ha, PREEMERGENCE",0
same,"Plant response rating, Cotton","cotton; POSTEMERGENCE, Rate 50 g/ha",10
same,"Plant response rating, Cotton","cotton; POSTEMERGENCE, Rate 200 g/ha",10
same,"Plant response rating, Cotton","cotton; PREEMERGENCE, Rate 50 g/ha",0
same,"Plant response rating, Cotton","cotton; Rate 200 g/ha, PREEMERGENCE",2
same,"Plant response rating, Crabgrass","crabgrass; POSTEMERGENCE, Rate 50 g/ha",3
same,"Plant response rating, Crabgrass","crabgrass; POSTEMERGENCE, Rate 200 g/ha",6
same,"Plant response rating, Crabgrass","crabgrass; PREEMERGENCE, Rate 50 g/ha",0
same,"Plant response rating, Crabgrass","crabgrass; Rate 200 g/ha, PREEMERGENCE",0
same,"Plant response rating, Giant foxtail","giant foxtail; POSTEMERGENCE, Rate 50 g/ha",4
same,"Plant response rating, Giant foxtail","giant foxtail; PREEMERGENCE, Rate 50 g/ha",0
same,"Plant response rating, Giant foxtail","giant foxtail; Rate 200 g/ha, POSTEMERGENCE",6
same,"Plant response rating, Giant foxtail","giant foxtail; Rate 200 g/ha, PREEMERGENCE",5
same,"Plant response rating, Lambsquarter","lambsquarters; POSTEMERGENCE, Rate 50 g/ha",7
same,"Plant response rating, Lambsquarter","lambsquarters; PREEMERGENCE, Rate 50 g/ha",9
same,"Plant response rating, Lambsquarter","lambsquarters; Rate 200 g/ha, POSTEMERGENCE",10
same,"Plant response rating, Lambsquarter","lambsquarters; Rate 200 g/ha, PREEMERGENCE",9
same,"Plant response rating, Morningglory","morningglory; POSTEMERGENCE, Rate 50 g/ha",9
same,"Plant response rating, Morningglory","morningglory; PREEMERGENCE, Rate 50 g/ha",1
same,"Plant response rating, Morningglory","morningglory; Rate 200 g/ha, POSTEMERGENCE",10
same,"Plant response rating, Morningglory","morningglory; Rate 200 g/ha, PREEMERGENCE",3
same,"Plant response rating, Rape","rape; POSTEMERGENCE, Rate 50 g/ha",3
same,"Plant response rating, Rape","rape; PREEMERGENCE, Rate 50 g/ha",1
same,"Plant response rating, Rape","rape; Rate 200 g/ha, POSTEMERGENCE",6
same,"Plant response rating, Rape","rape; Rate 200 g/ha, PREEMERGENCE",2
same,"Plant response rating, Rice","rice; POSTEMERGENCE, Rate 50 g/ha",4
same,"Plant response rating, Rice","rice; PREEMERGENCE, Rate 50 g/ha",0
same,"Plant response rating, Rice","rice; Rate 200 g/ha, POSTEMERGENCE",5
same,"Plant response rating, Rice","rice; Rate 200 g/ha, PREEMERGENCE",0
same,"Plant response rating, Sorghum","sorghum; POSTEMERGENCE, Rate 50 g/ha",3
same,"Plant response rating, Sorghum","sorghum; PREEMERGENCE, Rate 50 g/ha",0
same,"Plant response rating, Sorghum","sorghum; Rate 200 g/ha, POSTEMERGENCE",4
same,"Plant response rating, Sorghum","sorghum; Rate 200 g/ha, PREEMERGENCE",0
same,"Plant response rating, Soybean","soybean; POSTEMERGENCE, Rate 50 g/ha",7
same,"Plant response rating, Soybean","soybean; PREEMERGENCE, Rate 50 g/ha",0
same,"Plant response rating, Soybean","soybean; Rate 200 g/ha, POSTEMERGENCE",7
same,"Plant response rating, Soybean","soybean; Rate 200 g/ha, PREEMERGENCE",0
same,"Plant response rating, Sugar beet","sugar beet; POSTEMERGENCE, Rate 50 g/ha",10
same,"Plant response rating, Sugar beet","sugar beet; PREEMERGENCE, Rate 50 g/ha",1
same,"Plant response rating, Sugar beet","sugar beet; Rate 200 g/ha, POSTEMERGENCE",10
same,"Plant response rating, Sugar beet","sugar beet; Rate 200 g/ha, PREEMERGENCE",8
same,"Plant response rating, Velvetleaf","velvetleaf; POSTEMERGENCE, Rate 50 g/ha",8
same,"Plant response rating, Velvetleaf","velvetleaf; PREEMERGENCE, Rate 50 g/ha",2
same,"Plant response rating, Velvetleaf","velvetleaf; Rate 200 g/ha, POSTEMERGENCE",9
same,"Plant response rating, Velvetleaf","velvetleaf; Rate 200 g/ha, PREEMERGENCE",4
same,"Plant response rating, Wheat","wheat; POSTEMERGENCE, Rate 50 g/ha",3
same,"Plant response rating, Wheat","wheat; PREEMERGENCE, Rate 50 g/ha",0
same,"Plant response rating, Wheat","wheat; Rate 200 g/ha, POSTEMERGENCE",6
same,"Plant response rating, Wheat","wheat; Rate 200 g/ha, PREEMERGENCE",2
same,"Plant response rating, Wild buckwheat","wild buckwheat; POSTEMERGENCE, Rate 50 g/ha",10
same,"Plant response rating, Wild buckwheat","wild buckwheat; PREEMERGENCE, Rate 50 g/ha",0
same,"Plant response rating, Wild buckwheat","wild buckwheat; Rate 200 g/ha, POSTEMERGENCE",10
same,"Plant response rating, Wild buckwheat","wild buckwheat; Rate 200 g/ha, PREEMERGENCE",9
same,"Plant response rating, Wild oat","wild oat; POSTEMERGENCE, Rate 50 g/ha",3
same,"Plant response rating, Wild oat","wild oat; PREEMERGENCE, Rate 50 g/ha",0
same,"Plant response rating, Wild oat","wild oat; Rate 200 g/ha, POSTEMERGENCE",3
same,"Plant response rating, Nutsedge","purple nutsedge; POSTEMERGENCE, Rate 50 g/ha",2
same,"Plant response rating, Nutsedge","purple nutsedge; PREEMERGENCE, Rate 50 g/ha",0
same,"Plant response rating, Nutsedge","purple nutsedge; Rate 200 g/ha, POSTEMERGENCE",8
same,"Plant response rating, Nutsedge","purple nutsedge; Rate 200 g/ha, PREEMERGENCE",0
